# How the values were obtained:
# Format in all cases: in vivo
# mice [1] = experiment: Interaction with clonidine (cerebral survival time on sudden cardiac arrest caused by MgCl2); conditions: for antagonism of the effect of clonidine: simultaneously with clonidine
# [2] = system: synaptosomal high-affinity choline uptake (HACU); experiment: Barbiturate-induced cholinergic deficit in rats
# Excerpt: This sodium-dependent uptake normally constitutes the limiting factor in acetyl choline synthesis.
# mice [3] = experiment: Oxotremorine-induced tremor in mice
smiles,measurement,setting,value
Clc1cccc(Cl)c1N=C1NCCN1 [clonidine],increase in the cerebral survival time,mice [1]; sudden cardiac arrest caused by intravenous MgCl2,+60%
CCCC(C)C1(CC)C(=O)NC(=O)NC1=O (stereo not drawn) [pentobarbital],fall in synaptosomal high-affinity choline uptake (HACU),"[2]; 60 mg/kg ip, after 20 minutes of narcosis",-48%
"NC(=O)[C@@H]1CCCN1C(=O)[C@H](Cc1c[nH]cn1)NC(=O)[C@@H]1CCC(=O)N1 [TRH, pyroglutamylhistidylprolinamide]",inhibition of narcosis,[2]; 10 mg/kg ip simultaneously with pentobarbital,does not inhibit the narcosis
same,counteraction/inhibition of the fall in HACU induced by the barbiturate,"[2]; 10 mg/kg ip simultaneously with pentobarbital 60 mg/kg ip, HACU measured after 20 minutes of narcosis",-35%
same,antagonism of the effect of clonidine,mice [1]; 1 mg/kg ip,-20%
same,antagonism of the effect of clonidine,mice [1]; 3 mg/kg ip,-80%
same,effect on its own in the test,mice [1]; without clonidine,without having an effect on its own
same,boosting of the tremor,mice [3]; 3 mg/kg ip,no longer apparent
same,boosting of the tremor,"mice [3]; 10 mg/kg ip 30 minutes before oxotremorine 0.5 mg/kg ip, measured at peak of action",+90%
same,boosting of the tremor,mice [3]; administered orally (Example 1: 10 mg/kg),no boosting effect
same,boosting effect in the presence of scopolamine,mice [3]; scopolamine 0.01 mg/kg,persists
"Cn1cnc(C[C@H](NC(=O)[C@@H]2CCC(=O)N2)C(=O)N2[C@H]3CC[C@H](C3)[C@H]2C(N)=O)c1 [Example 1, (S)PyroGlu-(S)(N^.tau. -Me)His-(1S,3S,4R)ABH-NH2]",induction of tremor by the compound itself,mice [3]; 10 mg/kg ip,without itself inducing tremor
